Like-named read-outs stand apart in the source and are kept apart here.
How the values were obtained:
Assay type in all cases: in vivo, mouse
[1] = tested on: naturally aged C57BL6J mice
[2] = tested on: naturally aged C57BL6J mice; assay: Joint aging (arthritis marker mRNA) in naturally aged mice, Example 21-12, Table 27
Protocol: (§1) 22-month-old female C57BL6J mice (KRIBB Laboratory Animal Resource Center) were acclimated to the experimental environment for one week, after which the aged mice were randomly assigned to experimental and control groups. Eight-week-old, non-aged mice served as controls. LX-403 was mixed in a 10% ethanol solution of PEG400 and administered orally at a concentration of 25 mg/kg daily for 21 days, or administered to the skin, joints, or eyes at a concentration of 1 μM. LX-1801 was mixed in distilled water with 4% DMSO, 30% PEG300, and 5% Tween80 and administered to the skin, joints, or eyes at a concentration of 0.4 μM daily for 21 days. LX-2001 was mixed in PBS and administered to the skin, joints, or eyes at a concentration of […] daily for 21 days. LX-2002 was mixed in distilled water with 4% DMSO, 30% PEG300, and 5% Tween80 and administered to the skin, joints, or eyes at a concentration of 2 μM daily for 21 days. […] LX-2005 was mixed in distilled water with 4% DMSO, 30% PEG300, and 5% Tween80 and administered to the skin, joints, or eyes at a concentration of 90 μM daily for 21 days. LX-2007 was mixed in distilled water with 4% DMSO, 30% PEG300, and 5% Tween80 and administered to the skin, joints, or eyes at a concentration of 90 μM daily for 21 days. […] LX-3002 was mixed in distilled water with 4% DMSO, 30% PEG300, and 5% Tween80 and administered orally at a concentration of 10 mg/kg daily for 21 days. […] LX-5411 was mixed in 5% PBS and administered orally at a concentration of 10 mg/kg daily for 21 days or administered to the skin, joints, or eyes at a concentration of 3 μM. LX-5701 was mixed in PBS and administered orally at a concentration of 360 mg/kg daily for 21 days. LX-6807 was mixed in saline and administered intraperitoneally at a concentration of 1 mg/kg daily for 21 days. LX-2101 or LX-2102 was mixed in PBS solution with 5% DMSO and administered intraperitoneally at a concentration of 20 mg/kg or 10 mg/kg, respectively, daily for 21 days. The control group received only the solution in the same volume. After the end of drug administration, the methods described in each example below were performed.
RNA was extracted from joint tissue as described in Example 7-2 of WO2023-085787 A1, and qRT-PCR was performed using the synthesized cDNA. […] To analyze joint pain due to joint aging, hotplate analysis was performed. Specifically, thermal pain thresholds were measured using a hot plate. After acclimating mice to a temperature of 30° C. for 10 minutes, the time required for hind paw licking or jumping responses to occur at 55° C. was measured. To prevent tissue damage, the response was measured for less than 30 seconds, and the average value was used from five measurements.

[3] = tested on: naturally aged C57BL6J mice; assay: Cataract incidence in naturally aged mice, Example 21-15, Table 30; conditions: orally twice a week, 360 mg/kg, until death, untreated aged 83
Protocol: as §1
Cataracts, which occur with age, are a disease that causes visual impairment due to clouding of the lens and are a major cause of blindness. The mice of Example 21-1 were treated with the test compound mixed in PBS orally twice a week at a concentration of 360 mg/kg. Cataract development was assessed biweekly until death.

[4] = tested on: naturally aged C57BL6J mice; assay: Geriatric depression and anxiety in aged mice, Example 21-8; conditions: for amount of SASP, p16, SA-β-gal, lipofuscin / symptoms of geriatric depression and anxiety: aged mice; for amount of SASP in serum and tissues: mice of Examples 21-5 and 21-6
Text: The amount of senescent-associated secretory factor (SASP) in serum and tissues collected from mice of Examples 21-5 and 21-6 was reduced by treatment with LX-5701, LX-2101, or LX-2102. It was confirmed that removing senescent cells, which increase with aging in mice, and effectively reducing the amount of senescent-associated secretory factor (SASP) can improve symptoms of geriatric depression and anxiety.

[5] = tested on: obesity-induced aged C57BL6J mice; assay: Anxiety, depression, lethargy (open field test) in obesity-aged mice, Example 23-4, Table 44; conditions: for geriatric depression: obesity-aged mice; for Open Field Test Time in Center: obesity-induced aged mice, daily for 21 days, activity after obesity-induced aging calculated as 100%
Procedure, shortened: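 Male C57BL6J mice were made obese on a high-fat diet from 15 weeks of age. Compounds were given daily for 21 days: LX-3002 10 mg/kg orally, LX-5701 360 mg/kg orally, LX-6807 1 mg/kg intraperitoneally, with vehicle-treated controls. Open-field activity was then expressed relative to obese untreated mice set at 100%.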

[6] = after 7 days, 6 mm punch dorsal skin wounds, naturally aged mice, untreated aged 3.2 (±0.4)

| Molecule | Wound size (mm) [1, 6] | Col2a1 mRNA (fold) [2] | Cataract incidence (%) [3] [%] | amount of SASP, p16, SA-β-gal, lipofuscin [4] | symptoms of geriatric depression and anxiety [4] | geriatric depression [5] | Open Field Test Time in Center [5] | amount of SASP in serum and tissues [4] | wound/damage healing improvement ([1]; mouse, in vivo) | Wound size (mm) ([1]; mouse, in vivo) |
| --- | --- | --- | --- | --- | --- | --- | --- | --- | --- | --- |
| C[C@@H]1CC[C@@]23C[C@H](O)C(=O)[C@@]2(O)[C@]1(C)[C@H](OC(=O)CCl)C[C@@H](C1=CCn2c(=O)n(-c4ccccc4)c(=O)n2C1)[C@@H]3C [LX-1801, (2S,3aS,4S,5R,7R,8S,8aS,11R)-7-(1,3-Dioxo-2-phenyl-2,3,5,8-tetrahydro-1H-[1,2,4]triazolo[1,2-a]pyridazin-6-yl)-2,3a-dihydroxy-4,8,11-trimethyl-3-oxooctahydro-1H-4,8a-propanoazulen-5-yl 2-Chloroacetate] | 2.5 (±0.6) mm | 2.6 (±0.2) fold | 68 | – | – | – | – | – | – | – |
| C[C@H]1[C@H](C)CC[C@]2(C(=O)O)CC[C@]3(C)C(=CC[C@@H]4[C@@]5(C)CC[C@H](O)C(C)(C)[C@@H]5CC[C@]43C)[C@H]12 [LX-2001, Ursolic acid] | 2.5 (±0.5) mm | 1.8 (±0.2) fold | 75 | – | – | – | – | – | – | – |
| Cc1cccc([C@H](C)c2cnc[nH]2)c1C [LX-6807, Dexmedetomidine] | 1.7 (±0.1) mm | 3.5 (±0.2) fold | 61 | reduced | improved | similarly improving geriatric depression | 202 (±18.2) % | – | – | – |
| CC1(C)CC[C@]2(C(=O)O)CC[C@]3(C)C(=CC[C@@H]4[C@@]5(C)CC[C@H](O)C(C)(C)[C@@H]5CC[C@]43C)[C@@H]2C1 [LX-2003, Oleanolic acid] | 2.6 (±0.6) mm | 1.9 (±0.2) fold | 69 | – | – | – | – | – | – | – |
| Tocofersolan [LX-3001] | 2.4 (±0.1) mm | – | 73 | reduced | improved | – | 168 (±11.9) % | – | – | – |
| O=C(C(C[N+](=O)[O-])=NO)N1CCN(C(c2ccc(Cl)cc2)c2ccc(Cl)cc2)CC1 [LX-403] | 1.9 (±0.2) mm | 2.9 (±0.2) fold | 57 | – | – | – | – | – | – | – |
| CCCC\C=C/C=C/C=C\CCCCCCCC(=O)O [LX-2707, Punicic acid] | 2.7 (±0.3) mm | – | 48 | reduced | improved | similarly improving geriatric depression | 224 (±12.8) % | – | – | – |
| C#CC(=O)N1[C@@H](CCCC)Cc2cc(OC)ccc2[C@@H]1c1ccc(NC23CC4CC(CC(C4)C2)C3)cc1 [LX-5411] | 1.6 (±0.1) mm | 3.3 (±0.3) fold | 61 | reduced | improved | similarly improving geriatric depression | – | – | – | – |
| C[C@H]1[C@H](C)CC[C@]2(C(=O)O)CC[C@]3(C)C(=CC[C@@H]4[C@@]5(C)C[C@@H](O)[C@H](O)C(C)(C)[C@@H]5CC[C@]43C)[C@H]12 [LX-2002, Corosolic acid] | 2.7 (±0.4) mm | 1.7 (±0.3) fold | 71 | – | – | – | – | – | – | – |
| CC1(C)CC[C@]2(NC(=O)C(C)(F)F)CC[C@]3(C)[C@H](C(=O)C=C4[C@@]5(C)C=C(C#N)C(=O)C(C)(C)[C@@H]5CC[C@]43C)[C@@H]2C1 [LX-2101, Omaveloxolone] | 1.9 (±0.3) mm | 1.9 (±0.2) fold | 77 | reduced | improved | similarly improving geriatric depression | – | reduced | – | – |
| COC(=O)[C@]12CCC(C)(C)C[C@H]1[C@H]1C(=O)C=C3[C@@]4(C)C=C(C#N)C(=O)C(C)(C)[C@@H]4CC[C@@]3(C)[C@]1(C)CC2 [LX-2102, Bardoxolone methyl] | – | – | – | – | – | – | – | reduced | damage treatment and recovery | – |
| C=C(C)[C@@H]1CC[C@]2(C(=O)O)CC[C@]3(C)[C@H](CC[C@@H]4[C@@]5(C)CC[C@H](O)C(C)(C)[C@@H]5CC[C@]43C)[C@@H]12 [LX-2005, Betulinic acid] | 2.9 (±0.3) mm | 2.2 (±0.1) fold | 72 | – | – | – | – | – | – | – |
| COC(=O)c1ccc([C@H]2c3[nH]c4ccccc4c3C[C@H](C(=O)OC)N2C(=O)CCl)cc1 [LX-405] | – | – | – | reduced | improved | similarly improving geriatric depression | – | – | – | – |
| COC(=O)[C@H]1Cc2c([nH]c3ccccc23)[C@H](c2ccc(S(C)(=O)=O)cc2)N1C(=O)CCl [LX-5401, methyl (1S,3R)-2-(2-chloroacetyl)-1-(4-(methylsulfonyl)phenyl)-2,3,4,9-tetrahydro-1H-pyrido[3,4-b]indole-3-carboxylate] | 2.3 (±0.3) mm | – | 69 | reduced | improved | similarly improving geriatric depression | – | – | – | – |
| CC1(C)C=C2[C@H]3CC[C@@H]4[C@@]5(C)CCC(=O)C(C)(C)[C@@H]5CC[C@@]4(C)[C@]3(C)CC[C@@]2(C(=O)O)CC1 [LX-2007, Moronic acid] | 3.0 (±0.2) mm | 1.6 (±0.2) fold | 80 | – | – | – | – | – | – | – |
| O=C1C2CCN(CC2)C1CNC(=O)C(F)(F)F (stereo not drawn) [LX-5701] | – | 2.7 (±0.3) fold | 64 | reduced | improved | – | 217 (±20.1) % | reduced | – | 1.9 (±0.2) mm |
